Test results: article PMC4965013, “Open Source Drug Discovery with the Malaria Box Compound Collection for Neglected Diseases and Beyond” (PLoS Pathogens, 2016)

Assays:
P. falciparum = assay: EC50 listed in S2 Table Metabolomics (used to set the concentration tested); assay type: cell-based; settings: Plasmodium falciparum; EC50 used for Factor_XEC50 in metabolomics; read-out: EC50_nM
[1] = test system: P. falciparum 3D7 trophozoites; assay: Metabolomic fingerprint profiling LC-MS; assay type: cell-based, Plasmodium falciparum; set-up: UDP-D-glucose / ADP-D-glucose: unit not given here; settings: for Acetyllysine / N-acetyl-L-ornithine / N-carbamoyl-L-aspartate / NADPH / dAMP / dCMP / dTDP / dTMP / dTTP / dihydroorotate / orotate / DLH / DLS/SDL/SID / PD / PEE / PVNF / 3-phosphoglycerate / ADP-D-glucose / ATP / CDP / D-sedoheptulose-1/7-phosphate / FAD / GMP / NAD+ / NADP+ / Octoluse Bisphosphate / Pyroglutamic acid / UDP-D-glucose / UDP-D-glucuronate / UDP-N-acetyl-glucosamine / UDP / UMP / UTP / a-ketoglutarate / citrate/isocitrate / cytidine / dATP / dGMP/AMP / fumarate / glucose-1/6-phosphate / glycerate / guanine / guanosine / hypoxanthine / indole / inosine / nicotinate / ornithine / phosphoenolpyruvate / pyruvate / ribose-phosphate / sarcosine/alanine / sn-glycerol-3-phosphate / succinate/methylmalonic acid / uridine / xanthosine: S2 Table Metabolomics; for Acetyllysine: metabolite Acetyllysine; for N-acetyl-L-ornithine: metabolite N-acetyl-L-ornithine; for N-carbamoyl-L-aspartate: metabolite N-carbamoyl-L-aspartate; for NADPH: metabolite NADPH; for dAMP: metabolite dAMP; for dCMP: metabolite dCMP; for dTDP: metabolite dTDP; for dTMP: metabolite dTMP; for dTTP: metabolite dTTP; for dihydroorotate: metabolite dihydroorotate; for orotate: metabolite orotate; for DLH: peptide DLH; for DLS/SDL/SID: peptide DLS/SDL/SID; for PD: peptide PD; for PEE: peptide PEE; for PVNF: peptide PVNF; for 3-phosphoglycerate: metabolite 3-phosphoglycerate; for ADP-D-glucose: metabolite ADP-D-glucose; for ATP: metabolite ATP; for CDP: metabolite CDP; for CDP / D-sedoheptulose-1/7-phosphate / GMP / Octoluse Bisphosphate / UDP / UMP / UTP / citrate/isocitrate / dGMP/AMP / fumarate / glucose-1/6-phosphate / glycerate / guanine / guanosine / inosine / pyruvate / sarcosine/alanine / succinate/methylmalonic acid / uridine / xanthosine: change in metabolite level after compound treatment; for D-sedoheptulose-1/7-phosphate: metabolite D-sedoheptulose-1/7-phosphate; for FAD: metabolite FAD; for GMP: metabolite GMP; for NAD+: metabolite NAD+; for NADP+: metabolite NADP+; for Octoluse Bisphosphate: metabolite Octoluse Bisphosphate; for Pyroglutamic acid: metabolite Pyroglutamic acid; for UDP-D-glucose: metabolite UDP-D-glucose; for UDP-D-glucuronate: metabolite UDP-D-glucuronate; for UDP-N-acetyl-glucosamine: metabolite UDP-N-acetyl-glucosamine; for UDP: metabolite UDP; for UMP: metabolite UMP; for UTP: metabolite UTP; for a-ketoglutarate: metabolite a-ketoglutarate; for citrate/isocitrate: metabolite citrate/isocitrate; for cytidine: metabolite cytidine; for dATP: metabolite dATP; for dGMP/AMP: metabolite dGMP/AMP; for fumarate: metabolite fumarate; for glucose-1/6-phosphate: metabolite glucose-1/6-phosphate; for glycerate: metabolite glycerate; for guanine: metabolite guanine; for guanosine: metabolite guanosine; for hypoxanthine: metabolite hypoxanthine; for indole: metabolite indole; for inosine: metabolite inosine; for 2_3-Diphosphoglyceric acid / 4-phosphopantothenate / 6-phospho-D-gluconate / FMN / IMP / Pyrophosphate / Sedoheptoluse bisphosphate / cyclic-AMP / glutathione disulfide / lactate / myo-inositol: metabolite level change after treatment; for nicotinate: metabolite nicotinate; for ornithine: metabolite ornithine; for phosphoenolpyruvate: metabolite phosphoenolpyruvate; for pyruvate: metabolite pyruvate; for ribose-phosphate: metabolite ribose-phosphate; for sarcosine/alanine: metabolite sarcosine/alanine; for sn-glycerol-3-phosphate: metabolite sn-glycerol-3-phosphate; for succinate/methylmalonic acid: metabolite succinate/methylmalonic acid; for uridine: metabolite uridine; for xanthosine: metabolite xanthosine

CC1CCN(Cc2ccc(NC(=O)c3cc4ccc5cccnc5c4[nH]3)cc2)CC1 [MMV020549]
EC50 (P. falciparum): 274 nM
Acetyllysine [1]: -2.641
N-acetyl-L-ornithine [1]: -2.126
N-carbamoyl-L-aspartate [1]: 2.423
NADPH [1]: 1.7547
dAMP [1]: 0.4295
dCMP [1]: 0.8562
dTDP [1]: 0.3381
dTMP [1]: 0.4292
dTTP [1]: 0.08993
dihydroorotate [1]: 2.255
orotate [1]: 1.187
DLH [1]: -1.428
DLS/SDL/SID [1]: -2.953
PD [1]: -0.7061
PEE [1]: -0.9939
PVNF [1]: -1.512
3-phosphoglycerate [1]: -0.1099
ADP-D-glucose [1]: 0.08948
ATP [1]: -0.07943
CDP [1]: 0.4826
D-sedoheptulose-1/7-phosphate [1]: 0.04396
FAD [1]: -0.01225
GMP [1]: -0.01756
NAD+ [1]: -0.1491
NADP+ [1]: 0.1203
Octoluse Bisphosphate [1]: -0.3788
Pyroglutamic acid [1]: -0.1503
UDP-D-glucose [1]: -0.0815
UDP-D-glucuronate [1]: -0.1055
UDP-N-acetyl-glucosamine [1]: -0.09535
UDP [1]: 0.6579
UMP [1]: 0.21
UTP [1]: 0.1832
a-ketoglutarate [1]: -0.128
citrate/isocitrate [1]: -0.1069
cytidine [1]: -0.1996
dATP [1]: 0.1916
dGMP/AMP [1]: 0.3048
fumarate [1]: 0.06488
glucose-1/6-phosphate [1]: -0.4724
glycerate [1]: -0.06488
guanine [1]: 0.773
guanosine [1]: 1.397
hypoxanthine [1]: -0.1958
indole [1]: -0.3017
inosine [1]: -0.6136
2_3-Diphosphoglyceric acid [1]: -0.02531
4-phosphopantothenate [1]: 0.1058
6-phospho-D-gluconate [1]: -0.03173
FMN [1]: 0.1472
IMP [1]: 0.1864
Pyrophosphate [1]: 0.03595
Sedoheptoluse bisphosphate [1]: 0.04232
cyclic-AMP [1]: -0.09542
glutathione disulfide [1]: -0.2786
lactate [1]: -0.1188
myo-inositol [1]: -0.1919
nicotinate [1]: 0.02078
ornithine [1]: 0.04846
phosphoenolpyruvate [1]: -0.09349
pyruvate [1]: -0.1796
ribose-phosphate [1]: -0.1444
sarcosine/alanine [1]: -0.25
sn-glycerol-3-phosphate [1]: -0.2777
succinate/methylmalonic acid [1]: -0.1252
uridine [1]: 0.147
xanthosine [1]: -0.8804

Cc1ccc(N2C3c4ccccc4N(S(=O)(=O)c4ccc(C)cc4)C2c2ccccc2N3S(=O)(=O)c2ccc(C)cc2)cc1 [MMV007160]
EC50 (P. falciparum): 24.8 nM
Acetyllysine [1]: 0.3548
N-acetyl-L-ornithine [1]: 0.3325
N-carbamoyl-L-aspartate [1]: 1.35
NADPH [1]: 0.1135
dAMP [1]: 0.01944
dCMP [1]: 0.09265
dTDP [1]: 0.2488
dTMP [1]: 0.1305
dTTP [1]: 0.2593
dihydroorotate [1]: 1.082
orotate [1]: 0.8469
DLH [1]: 0.1334
DLS/SDL/SID [1]: 0.2278
PD [1]: -0.1641
PEE [1]: -0.1118
PVNF [1]: 0.2167
3-phosphoglycerate [1]: 0.1652
ADP-D-glucose [1]: -0.01319
ATP [1]: 0.3343
CDP [1]: 0.1565
D-sedoheptulose-1/7-phosphate [1]: 0.1973
FAD [1]: -0.002001
GMP [1]: 0.2649
NAD+ [1]: 0
NADP+ [1]: 0.07922
Octoluse Bisphosphate [1]: 0.295
Pyroglutamic acid [1]: 0.3777
UDP-D-glucose [1]: 0.05012
UDP-D-glucuronate [1]: 0.1524
UDP-N-acetyl-glucosamine [1]: -0.001304
UDP [1]: 0.1082
UMP [1]: 0.008735
UTP [1]: 0.1487
a-ketoglutarate [1]: 0.5892
citrate/isocitrate [1]: 0.4078
cytidine [1]: 0.08232
dATP [1]: 0.1879
dGMP/AMP [1]: 0.0905
fumarate [1]: 0.3202
glucose-1/6-phosphate [1]: 0.8192
glycerate [1]: 0.7953
guanine [1]: 0.3293
guanosine [1]: 0.8873
hypoxanthine [1]: 0.7164
indole [1]: 0.6321
inosine [1]: 0.395
2_3-Diphosphoglyceric acid [1]: 0.1996
4-phosphopantothenate [1]: 0.1099
6-phospho-D-gluconate [1]: 0.1949
FMN [1]: 0.06109
IMP [1]: -0.03231
Pyrophosphate [1]: 0.1406
Sedoheptoluse bisphosphate [1]: 0.1591
cyclic-AMP [1]: 0.1479
glutathione disulfide [1]: 0.15
lactate [1]: 0.5915
myo-inositol [1]: 0.754
nicotinate [1]: 0.5248
ornithine [1]: 0.05899
phosphoenolpyruvate [1]: 0.1975
pyruvate [1]: -0.02541
ribose-phosphate [1]: -0.3937
sarcosine/alanine [1]: 0.2516
sn-glycerol-3-phosphate [1]: -0.6224
succinate/methylmalonic acid [1]: 0.03261
uridine [1]: 0.5939
xanthosine [1]: 0.5985
